How the values were obtained:
velvetleaf = assay: Test B pre/postemergence velvetleaf; format: in vivo, Abutilon theophrasti
Summary of the method: (§1)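 Herbicidal effect was estimated by eye on a ten-point control scale after plants spent twelve to sixteen days in a greenhouse following soil or foliar treatment. Foliar sprays targeted plants at one to four leaves; all doses were formulated in a non-phytotoxic solvent with surfactant.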

giant foxtail = assay: Test B pre/postemergence giant foxtail; format: in vivo, Setaria faberii
Summary of the method: as §1

corn = assay: Test B pre/postemergence corn; format: in vivo, Zea mays
Summary of the method: as §1

wild oat = assay: Test B pre/postemergence wild oat; format: in vivo, Avena fatua
Summary of the method: as §1

soybean = assay: Test B pre/postemergence soybean; format: in vivo, Glycine max
Summary of the method: as §1

pigweed = assay: Test B pre/postemergence pigweed; format: in vivo, Amaranthus retroflexus
Summary of the method: as §1

rape = assay: Test B pre/postemergence rape; format: in vivo, Brassica napus
Summary of the method: as §1

rice = assay: Test B flood test rice; format: in vivo, Oryza sativa
Summary of the method: (§2)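 Each value is a visual injury score relative to controls, with 10 meaning complete control and 0 no effect. Evaluation took place twelve to sixteen days after the 2-leaf-stage plants were treated and kept in the greenhouse.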

smallflower flatsedge = assay: Test B flood test smallflower flatsedge; format: in vivo, Cyperus difformis
Summary of the method: as §2

purple nutsedge = assay: Test B pre/postemergence purple nutsedge; format: in vivo, Cyperus rotundus
Summary of the method: as §1

bamyardgrass = assay: Test B flood test barnyardgrass; format: in vivo, Echinochloa crus-galli
Summary of the method: as §2

duck salad = assay: Test B flood test duck salad; format: in vivo, Heteranthera limosa
Summary of the method: as §2

sugar beet = assay: Test B pre/postemergence sugar beet; format: in vivo, Beta vulgaris
Summary of the method: as §1

surinam grass = assay: Test B pre/postemergence surinam grass; format: in vivo, Brachiaria decumbens
Summary of the method: as §1

morningglory = assay: Test B pre/postemergence morningglory; format: in vivo, Ipomoea hederacea
Summary of the method: as §1

crabgrass = assay: Test B pre/postemergence crabgrass; format: in vivo, Digitaria sanguinalis
Summary of the method: as §1

cocklebur = assay: Test B pre/postemergence cocklebur; format: in vivo, Xanthium strumarium
Summary of the method: as §1

wheat = assay: Test B pre/postemergence wheat; format: in vivo, Triticum aestivum
Summary of the method: as §1

blackgrass = assay: Test B pre/postemergence blackgrass; format: in vivo, Alopecurus myosuroides
Summary of the method: as §1

[1] = Postemergence, Rate 62 g/ha, scale 0 to 10, 0 is no effect, 10 is complete control
[2] = Postemergence, Rate 125 g/ha, scale of 0 to 10 where 0 is no effect and 10 is complete control
[3] = Postemergence, Rate 250 g/ha, scale of 0 to 10, 0 is no effect, 10 is complete control
[4] = Preemergence, Rate 62 g/ha, scale of 0 to 10 where 0 is no effect and 10 is complete control
[5] = Preemergence, Rate 125 g/ha, scale of 0 to 10 where 0 is no effect and 10 is complete control
[6] = Preemergence, Rate 250 g/ha, scale 0 to 10 (0 no effect, 10 complete control)
[7] = Preemergence, Rate 500 g/ha, scale of 0 to 10 where 0 is no effect and 10 is complete control
[8] = Postemergence, Rate 500 g/ha, scale of 0 to 10 where 0 is no effect and 10 is complete control
[9] = Rate 62 g/ha, flood test species, Pre-emergence, visual evaluation after twelve to sixteen days
[10] = Rate 125 g/ha, under heading Pre-emergence, flood test species, visual evaluation after twelve to sixteen days
[11] = Rate 250 g/ha, Pre-emergence (flood test species), scale 0 to 10, 0 is no effect, 10 is complete control
[12] = Rate 500 g/ha, Pre-emergence section of Table B, 0 to 10 scale (0 no effect, 10 complete control)

CC(C)N(C(=O)n1oc(=O)n(CC(=O)C2CCC2)c1=O)c1ccccc1 [Compound 641]
Plant response rating, Velvetleaf (velvetleaf; [1]): 0 | Plant response rating, Velvetleaf (velvetleaf; [2]): 0 | Velvetleaf plant response rating (velvetleaf; [3]): 0 | Velvetleaf plant response rating (velvetleaf; [4]): 0 | Velvetleaf plant response rating (velvetleaf; [5]): 0 | Plant response rating, Velvetleaf (velvetleaf; [6]): 0 | Plant response rating, Velvetleaf (velvetleaf; [7]): 0 | Plant response rating, Giant foxtail (giant foxtail; [1]): 0 | Plant response rating, Giant foxtail (giant foxtail; [2]): 0 | Giant foxtail plant response rating (giant foxtail; [3]): 3 | Plant response rating, Giant foxtail (giant foxtail; [8]): 6 | Giant foxtail plant response rating (giant foxtail; [4]): 5 | Giant foxtail plant response rating (giant foxtail; [5]): 9 | Plant response rating, Giant foxtail (giant foxtail; [6]): 9 | Plant response rating, Giant foxtail (giant foxtail; [7]): 9 | Plant response rating, Corn (corn; [1]): 0 | Plant response rating, Corn (corn; [2]): 0 | Corn plant response rating (corn; [3]): 0 | Plant response rating, Corn (corn; [8]): 0 | Corn plant response rating (corn; [4]): 0 | Plant response rating, Corn (corn; [6]): 0 | Plant response rating, Corn (corn; [7]): 2 | Plant response rating, Wild oats (wild oat; [1]): 0 | Plant response rating, Wild oats (wild oat; [2]): 1 | Wild oats plant response rating (wild oat; [3]): 1 | Wild oats plant response rating (wild oat; [4]): 0 | Wild oats plant response rating (wild oat; [5]): 0 | Plant response rating, Wild oats (wild oat; [6]): 0 | Plant response rating, Wild oats (wild oat; [7]): 5 | Plant response rating, Soybean (soybean; [1]): 0 | Plant response rating, Soybean (soybean; [2]): 0 | Soybean plant response rating (soybean; [3]): 1 | Soybean plant response rating (soybean; [4]): 0 | Soybean plant response rating (soybean; [5]): 0 | Plant response rating, Soybean (soybean; [6]): 0 | Plant response rating, Soybean (soybean; [7]): 0 | Plant response rating, Redroot pigweed (pigweed; [2]): 0 | Redroot pigweed plant response rating (pigweed; [3]): 3 | Redroot pigweed plant response rating (pigweed; [4]): 0 | Redroot pigweed plant response rating (pigweed; [5]): 0 | Plant response rating, Redroot pigweed (pigweed; [6]): 0 | Plant response rating, Redroot pigweed (pigweed; [7]): 7 | Plant response rating, Rape (rape; [1]): 0 | Plant response rating, Rape (rape; [2]): 0 | Rape plant response rating (rape; [3]): 0 | Plant response rating, Rape (rape; [8]): 0 | Rape plant response rating (rape; [4]): 0 | Plant response rating, Rape (rape; [7]): 0 | Plant response rating, Rice (0 to 10 scale, 0 is no effect, 10 is complete control) (rice; [9]): 0 | Rice plant response rating (0 to 10 scale, 0 is no effect, 10 is complete control) (rice; [10]): 0 | Rice plant response rating (rice; [11]): 0 | Rice plant response rating (rice; [12]): 0 | Plant response rating, S. Flatsedge (0 to 10 scale, 0 is no effect, 10 is complete control) (smallflower flatsedge; [9]): 0 | S. Flatsedge plant response rating (0 to 10 scale, 0 is no effect, 10 is complete control) (smallflower flatsedge; [10]): 0 | S. Flatsedge plant response rating (smallflower flatsedge; [11]): 0 | S. Flatsedge plant response rating (smallflower flatsedge; [12]): 0 | Plant response rating, Nutsedge (purple nutsedge; [1]): 0 | Plant response rating, Nutsedge (purple nutsedge; [2]): 0 | Nutsedge plant response rating (purple nutsedge; [3]): 4 | Nutsedge plant response rating (purple nutsedge; [4]): 0 | Nutsedge plant response rating (purple nutsedge; [5]): 0 | Plant response rating, Nutsedge (purple nutsedge; [6]): 0 | Plant response rating, Nutsedge (purple nutsedge; [7]): 3 | Plant response rating, Barnyardgrass (0 to 10 scale, 0 is no effect, 10 is complete control) (bamyardgrass; [9]): 0 | Barnyardgrass plant response rating (0 to 10 scale, 0 is no effect, 10 is complete control) (bamyardgrass; [10]): 0 | Barnyardgrass plant response rating (bamyardgrass; [11]): 0 | Barnyardgrass plant response rating (bamyardgrass; [12]): 0 | Plant response rating, Ducksalad (0 to 10 scale, 0 is no effect, 10 is complete control) (duck salad; [9]): 0 | Ducksalad plant response rating (0 to 10 scale, 0 is no effect, 10 is complete control) (duck salad; [10]): 0 | Ducksalad plant response rating (duck salad; [11]): 0 | Ducksalad plant response rating (duck salad; [12]): 0 | Plant response rating, Sugarbeets (sugar beet; [1]): 0 | Plant response rating, Sugarbeets (sugar beet; [2]): 0 | Sugarbeets plant response rating (sugar beet; [3]): 0 | Sugarbeets plant response rating (sugar beet; [4]): 0 | Sugarbeets plant response rating (sugar beet; [5]): 0 | Plant response rating, Sugarbeets (sugar beet; [6]): 0 | Plant response rating, Sugarbeets (sugar beet; [7]): 0 | Plant response rating, B. signalgrass (surinam grass; [1]): 0 | Plant response rating, B. signalgrass (surinam grass; [2]): 0 | B. signalgrass plant response rating (surinam grass; [3]): 0 | Plant response rating, B. signalgrass (surinam grass; [8]): 4 | B. signalgrass plant response rating (surinam grass; [4]): 0 | B. signalgrass plant response rating (surinam grass; [5]): 0 | Plant response rating, B. signalgrass (surinam grass; [6]): 6 | Plant response rating, B. signalgrass (surinam grass; [7]): 8 | Plant response rating, Morningglory (morningglory; [1]): 0 | Plant response rating, Morningglory (morningglory; [2]): 1 | Morningglory plant response rating (morningglory; [3]): 7 | Plant response rating, Morningglory (morningglory; [8]): 9 | Morningglory plant response rating (morningglory; [4]): 0 | Morningglory plant response rating (morningglory; [5]): 0 | Plant response rating, Morningglory (morningglory; [6]): 0 | Plant response rating, Morningglory (morningglory; [7]): 0 | Plant response rating, Crabgrass (crabgrass; [1]): 0 | Plant response rating, Crabgrass (crabgrass; [2]): 0 | Crabgrass plant response rating (crabgrass; [3]): 3 | Plant response rating, Crabgrass (crabgrass; [8]): 6 | Crabgrass plant response rating (crabgrass; [4]): 0 | Crabgrass plant response rating (crabgrass; [5]): 3 | Plant response rating, Crabgrass (crabgrass; [6]): 7 | Plant response rating, Crabgrass (crabgrass; [7]): 9 | Plant response rating, Cocklebur (cocklebur; [1]): 0 | Plant response rating, Cocklebur (cocklebur; [2]): 0 | Cocklebur plant response rating (cocklebur; [3]): 0 | Plant response rating, Cocklebur (cocklebur; [8]): 0 | Cocklebur plant response rating (cocklebur; [4]): 0 | Cocklebur plant response rating (cocklebur; [5]): 0 | Plant response rating, Cocklebur (cocklebur; [6]): 0 | Plant response rating, Cocklebur (cocklebur; [7]): 0 | Plant response rating, Wheat (wheat; [1]): 0 | Plant response rating, Wheat (wheat; [2]): 0 | Wheat plant response rating (wheat; [3]): 0 | Wheat plant response rating (wheat; [4]): 0 | Wheat plant response rating (wheat; [5]): 0 | Plant response rating, Wheat (wheat; [6]): 0 | Plant response rating, Wheat (wheat; [7]): 0 | Plant response rating, Blackgrass (blackgrass; [1]): 0 | Plant response rating, Blackgrass (blackgrass; [2]): 0 | Blackgrass plant response rating (blackgrass; [3]): 2 | Plant response rating, Blackgrass (blackgrass; [8]): 6 | Blackgrass plant response rating (blackgrass; [4]): 0 | Blackgrass plant response rating (blackgrass; [5]): 0 | Plant response rating, Blackgrass (blackgrass; [6]): 2 | Plant response rating, Blackgrass (blackgrass; [7]): 8

— patent US6737383B1, “Herbicidal oxadiazolidines” (priority 1999, dated 2004)
